Measured values published in patent US10888089B2, “Methods and compositions for controlling fungus-growing ants” (UNIVERSITE PARIS EST CRETEIL VAL DE MARNE, priority 2016, dated 2021).
pIC50: −log10 of the molar value.

Experiments:
laccase [1] = assay: Laccase inhibition (ABTS colorimetric method), ant sample; format: biochemical; conditions: anti-laccase activity, ABTS substrate, read-out: IC50 Acromyrmex octospinosus
Experimental: (§1) Crushing was performed in mortars placed on ice, using pestles. […] After obtaining crushed matter of homogeneous texture, the whole was centrifuged. Centrifugation was performed at 4° C., 15,000 rpm for 20 min. For protein precipitation, the supernatant was 80% saturated with ammonium sulphate ((NH4)2SO4). After total dissolution of the ammonium sulphate, the solution obtained is placed at 4° C. for 12 hours. The solution was then centrifuged at a temperature of 4° C., at 15,000 rpm, for 20 min. The pellet obtained is redissolved in a minimum of cold distilled water and then dialysed against 5 litres of distilled water at 4° C. for 12 hours. The extract thus obtained constitutes the crude enzyme extract. These extracts were aliquoted and then stored at -20° C. […] Briefly, ABTS is diluted to 27.4 mg/L in […] buffer solution (pH 5.2). 150 μL of ABTS solution is incubated with 100 μL of test solution and then incubated for 30 min at 37° C. The measurement of OD at 405 nm is used to determine the amount of oxidised ABTS using Beer-Lambert's law (epsilon=36,000 mM). […] The method was published by Bourbonnais et al. in 1990 (Oxidation of non-phenolic substrates. An expanded role for laccase in lignin biodegradation. FEBS, 1990, 267, 99-102). […] The inhibitors selected for analysis are compounds having antioxidant capacity.

laccase [2] = assay: Laccase inhibition (ABTS colorimetric method), fungus garden sample; format: biochemical; conditions: anti-laccase activity, ABTS substrate, read-out: IC50 Leucophorus gongylophorus
Experimental: as §1

[3] = tested on: 5 actinomycete strains isolated from fungus-growing ants; assay: Antibacterial activity using discs in Petri dishes, average of 5 actinomycete strains; format: cell-based, Streptomyces, Tsukumurella and Gordonia
Experimental: (§2) The general principle is to test in solid medium the culture of the strain in the presence of a paper disc impregnated with the molecule to be tested. For each molecule tested at least three dilutions were prepared. In the presence of a molecule, a halo, the diameter of which is related to the intensity of the inhibitory effect, appears around the paper disc. This approach provides a simple way to select antibacterial molecules and to determine the minimum inhibitory concentration (MIC) of bacterial growth.
(§3) Antibacterial activity can be measured in liquid medium (in a liquid bacterial culture) or in solid medium (on an agar Petri dish) by adding a known concentration of antibiotic. In liquid medium, inhibition is measured by an optical density (OD); in solid medium, growth inhibition is estimated by the diameter of the halo corresponding to the zone where no growth is observed.
(§4) From the isolates, a sample is taken. This is suspended in 1 mL of physiological saline solution without measuring OD.
(§5) Inoculation is performed with 100 μL of suspension using a spreader. For undiluted essential oil tests, a disc soaked in essential oil is placed in the centre of the dish. For dilutions (½; ⅕), both discs are placed in the same dish. Dilutions were prepared by diluting the essential oils in sunflower oil. A control dish was prepared and consists of an inoculate in the absence of essential oil. A second control, this time with a disc impregnated with sunflower oil, was also prepared to confirm the absence of an effect. All products were sterilised and the experiments were performed under a hood in sterile conditions.
(§6) After 4 days of growth, the inhibition diameters were measured.
This step made it possible to isolate, from ants belonging to the species Acromyrmex octospinosus, 15 actinomycete strains including 12 belonging to the genus Tsukumurella, two to the genus Streptomyces and one to the genus Gordonia. In total, 5 strains belonging to the genera Streptomyces, Tsukumurella and Gordonia were selected for the analysis of antibacterial substances.

Streptomyces (NA 2B3) = assay: Antibacterial activity using discs in Petri dishes, strain Streptomyces NA2B3; format: cell-based
Experimental: as §2, §3, §4, §5, §6

[4] = tested on: laccase activity of Acromyrmex octospinosus and of Leucophorus gongylophorus; assay: Laccase inhibition (ABTS), ant and fungus garden samples together; format: biochemical; conditions: for anti-laccase activity (in words): data not shown
Experimental: Crushing was performed in mortars placed on ice, using pestles. Ants (2 g) and fungus garden (2 g) were crushed in 10 mL of distilled water refrigerated at 4° C. After obtaining crushed matter of homogeneous texture, the whole was centrifuged. Centrifugation was performed at 4° C., 15,000 rpm for 20 min.
For protein precipitation, the supernatant was 80% saturated with ammonium sulphate ((NH4)2SO4). After total dissolution of the ammonium sulphate, the solution obtained is placed at 4° C. for 12 hours. The solution was then centrifuged at a temperature of 4° C., at 15,000 rpm, for 20 min. The pellet obtained is redissolved in a minimum of cold distilled water and then dialysed against 5 litres of distilled water at 4° C. for 12 hours. The extract thus obtained constitutes the crude enzyme extract. These extracts were aliquoted and then stored at −20° C.
Laccase activity was evaluated using 2,2′-azino-bis(3-ethylbenzthiazoline-6-sulphonic acid) (ABTS) as oxidation control substrate. Briefly, ABTS is diluted to 27.4 mg/L in Mcllvain buffer solution (pH 5.2). 150 μL of ABTS solution is incubated with 100 μL of test solution and then incubated for 30 min at 37° C. The measurement of OD at 405 nm is used to determine the amount of oxidised ABTS using Beer-Lambert's law (epsilon=36,000 mM).
The determination of laccase activity is based on a colorimetric method where the substrate ABTS (2,2′-azino-bis(3-ethylbenzthiazoline-6-sulphonic acid) in reduced form (colourless) is oxidised (green colour) in the presence of the enzyme. The method was published by Bourbonnais et al. in 1990 (Oxidation of non-phenolic substrates. An expanded role for laccase in lignin biodegradation. FEBS, 1990, 267, 99-102). To test the inhibition of laccase activity, the molecule tested is added to the reaction mixture in amounts ranging from 0.1 mM to 100 mM. The inhibitors selected for analysis are compounds having antioxidant capacity.

| pIC50 (laccase [1]) | pIC50 (laccase [2]) | SMILES | Average inhibition diameters ([3]; Table 6, 20%) | inhibition diameter (Streptomyces (NA 2B3); Table 5, 20%) [cm] | further results |
| --- | --- | --- | --- | --- | --- |
| > 3.60 | > 3.60 | O=C1O[C@H]([C@@H](O)CO)C(O)=C1O [Ascorbic acid] |  |  |  |
|  |  | Cc1ccc(C(C)C)cc1O [Carvacrol] | 2.4 ± 0.3 | 2.2 ± 0.3 |  |
|  |  | O=CC=Cc1ccccc1 [Cinnamaldehyde] | 4.5 ± 0.6 | 3.0 ± 1.5 | Average inhibition diameters ([3]; Table 6, 10%): 2.9 ± 0.6 |
|  |  | CC[C@H]1OC(=O)[C@H](C)[C@@H](O[C@H]2C[C@@](C)(OC)[C@@H](O)[C@H](C)O2)[C@H](C)[C@@H](O[C@@H]2O[C@H](C)C[C@H](N(C)C)[C@H]2O)[C@](C)(O)C[C@@H](C)C(=O)[C@H](C)[C@@H](O)[C@]1(C)O [Erythromycin, reference compound] | 3.6 ± 0.4 | 4.3 ± 0.3 | Average inhibition diameters ([3]; Table 4, 10%): 3.2 ± 0.4 cm; Average inhibition diameters ([3]; Table 4, 20%): 3.6 ± 0.4 cm; Average inhibition diameters ([3]; Table 6, 10%): 3.2 ± 0.4; inhibition diameter (Streptomyces (NA 2B3); Table 3, 10%): 2.2 ± 0.3 cm; inhibition diameter (Streptomyces (NA 2B3); Table 3, 20%): 3.6 ± 0.4 cm; inhibition diameter (Streptomyces (NA 2B3); Table 5, 10%): 3.5 ± 0.5 cm |
|  |  | C=CCc1ccc(O)c(OC)c1 [Eugenol] | 2.9 ± 0.7 |  | anti-laccase activity (in words) [4]: anti-laccase activity was observed |
| > 4.00 | > 4.30 | COc1cc(/C=C/C(=O)O)ccc1O [Ferulic acid] |  |  |  |
| > 4.30 | > 4.30 | O=C(O)c1cc(O)c(O)c(O)c1 [Gallic acid] |  |  |  |
| > 3.60 | > 3.60 | N[C@@H](CS)C(=O)O [L-Cysteine] |  |  | inhibition of laccase activity ([4]; at concentrations above 0.5 mM (FIG. 1)): more than 80% |
| > 3.60 | > 4.00 | COc1cc(C(=O)O)cc(OC)c1O [Syringic acid] |  |  |  |
|  |  | Cc1ccc(C(C)C)c(O)c1 [Thymol] | 2.2 ± 0.3 | 1.7 ± 0.8 | anti-laccase activity (in words) [4]: anti-laccase activity was observed |

| SMILES | pIC50 (laccase [1]) | pIC50 (laccase [2]) | Average inhibition diameters ([3]; Table 6, 20%) | inhibition diameter (Streptomyces (NA 2B3); Table 5, 20%) [cm] | further results |
| --- | --- | --- | --- | --- | --- |
| O=S(O)(O)=S [Sodium thiosulfate] | > 3.60 | > 3.60 |  |  |  |
